Measured values: publication PMC6572064, “Discovery of 2-(1-(3-(4-Chloroxyphenyl)-3-oxo- propyl)pyrrolidine-3-yl)-1H-benzo[d]imidazole-4-carboxamide: A Potent Poly(ADP-ribose) Polymerase (PARP) Inhibitor for Treatment of Cancer” (Molecules, 2019)
pIC50: −log10 of the molar value. Like-named read-outs stand apart in the source and are kept apart here.

How the values were obtained:
PARP-2 = target: T1, PARP-2 (Homo sapiens, UniProt Q9UGN5); test: PARP-2 inhibition assay (PARP-2 Chemiluminescent Assay Kit, BPS Bioscience); type: biochemical; settings: for inhibition at 0.01 µM: 10 nM compound
T1 construct: purchased BPS Bioscience 80552
T1 sequence (Q9UGN5 whole entry): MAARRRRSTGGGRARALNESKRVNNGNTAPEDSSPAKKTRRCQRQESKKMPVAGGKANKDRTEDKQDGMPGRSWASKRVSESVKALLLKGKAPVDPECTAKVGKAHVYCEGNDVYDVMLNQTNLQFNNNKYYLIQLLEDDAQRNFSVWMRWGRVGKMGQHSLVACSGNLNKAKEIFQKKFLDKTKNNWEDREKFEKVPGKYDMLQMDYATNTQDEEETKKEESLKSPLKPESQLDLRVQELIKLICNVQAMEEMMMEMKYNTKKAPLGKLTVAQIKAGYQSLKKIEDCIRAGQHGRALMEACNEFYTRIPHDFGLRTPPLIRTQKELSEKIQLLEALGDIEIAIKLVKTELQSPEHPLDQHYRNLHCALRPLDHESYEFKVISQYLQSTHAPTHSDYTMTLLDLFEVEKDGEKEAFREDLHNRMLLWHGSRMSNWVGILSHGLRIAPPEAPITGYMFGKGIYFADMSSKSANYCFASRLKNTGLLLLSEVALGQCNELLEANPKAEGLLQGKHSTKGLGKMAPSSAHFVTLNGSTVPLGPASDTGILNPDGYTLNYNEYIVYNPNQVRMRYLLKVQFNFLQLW
Experimental: (§1) The PARP-1 and PARP-2 inhibition assays were performed in outsourcing, by a CRO company, Shanghai Medicilon Inc. (Shanghai, China). […] Briefly, PARP-1 or PARP-2 biotinylated substrate was incubated with compounds or solvent control at varying concentrations and an assay buffer containing the PARP-1 or PARP-2 enzyme.

PARP-1 = target: T2, PARP-1 (Homo sapiens, UniProt P09874); test: PARP-1 inhibition assay (PARP-1 Chemiluminescent Assay Kit, BPS Bioscience); type: biochemical; settings: for inhibition at 0.01 µM: 10 nM compound
T2 construct: purchased BPS Bioscience 80569
T2 sequence (P09874 whole entry): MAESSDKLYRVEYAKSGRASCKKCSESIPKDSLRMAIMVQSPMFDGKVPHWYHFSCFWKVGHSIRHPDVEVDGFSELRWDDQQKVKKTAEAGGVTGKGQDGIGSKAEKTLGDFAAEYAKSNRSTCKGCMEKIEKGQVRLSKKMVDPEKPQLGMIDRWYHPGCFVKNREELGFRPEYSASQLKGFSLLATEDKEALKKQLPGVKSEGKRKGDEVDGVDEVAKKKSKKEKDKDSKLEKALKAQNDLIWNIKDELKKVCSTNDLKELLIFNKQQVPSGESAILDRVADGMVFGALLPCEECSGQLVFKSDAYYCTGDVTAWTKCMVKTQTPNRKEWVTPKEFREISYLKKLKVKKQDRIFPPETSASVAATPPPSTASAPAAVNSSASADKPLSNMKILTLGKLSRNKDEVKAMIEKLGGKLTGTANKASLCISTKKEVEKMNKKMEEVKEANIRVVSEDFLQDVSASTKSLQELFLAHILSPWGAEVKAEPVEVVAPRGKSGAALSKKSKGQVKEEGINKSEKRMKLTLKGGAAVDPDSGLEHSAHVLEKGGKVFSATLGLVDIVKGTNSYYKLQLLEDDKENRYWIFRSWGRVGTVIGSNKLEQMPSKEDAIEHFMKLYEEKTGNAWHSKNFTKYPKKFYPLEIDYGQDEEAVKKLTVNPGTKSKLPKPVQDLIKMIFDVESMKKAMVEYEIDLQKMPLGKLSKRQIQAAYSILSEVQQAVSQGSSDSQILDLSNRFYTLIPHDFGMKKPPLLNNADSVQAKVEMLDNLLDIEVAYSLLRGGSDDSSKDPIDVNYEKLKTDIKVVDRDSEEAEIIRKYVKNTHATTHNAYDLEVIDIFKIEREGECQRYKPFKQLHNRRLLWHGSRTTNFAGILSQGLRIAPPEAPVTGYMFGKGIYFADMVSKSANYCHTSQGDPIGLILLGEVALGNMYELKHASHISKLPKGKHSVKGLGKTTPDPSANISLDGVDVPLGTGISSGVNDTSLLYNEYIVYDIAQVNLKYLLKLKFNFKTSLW
Experimental: as §1

[1] = system: CAPAN-1 (a BRCA-2-mutated pancreatic cancer cell line); test: Cell proliferation assay, three-day, CellTiter-Glo, CAPAN-1; type: cell-based; settings: for inhibition at 0.00508 µM: CAPAN-1, 0.00508 uM; for inhibition at 0.0152 µM: CAPAN-1, 0.0152 uM; for inhibition at 0.0457 µM: CAPAN-1, 0.0457 uM; for inhibition at […]: CAPAN-1, 0.14 uM; for inhibition at 0.41 µM: CAPAN-1, 0.41 uM; for inhibition at 1.23 µM: CAPAN-1, 1.23 uM; for inhibition at 3.7 µM: CAPAN-1, 3.70 uM; for inhibition at 11.11 µM: CAPAN-1, 11.11 uM; for inhibition at 33.33 µM: CAPAN-1, 33.33 uM; for inhibition at 100 µM: CAPAN-1, 100.00 uM
How it was run: (§2)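 Cells seeded overnight in 384-well plates, then exposed to compounds (DMSO stock diluted in medium) for 72 h at 37 °C, 5% CO2. Viability read as CellTiter-Glo luminescence after 60 min at room temperature.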

[2] = system: MDA-MB-436 (a BRCA-1-mutated breast cancer cell line); test: Cell proliferation assay, three-day, CellTiter-Glo, MDA-MB-436; type: cell-based; settings: for inhibition at 0.00508 µM: MDA-MB-436, MDA-MB-436, Conc. 0.00508 uM; for inhibition at 0.0152 µM: MDA-MB-436, MDA-MB-436, Conc. 0.0152 uM; for inhibition at 0.0457 µM: MDA-MB-436, MDA-MB-436, Conc. 0.0457 uM; for inhibition at 0.41 µM: MDA-MB-436, MDA-MB-436, Conc. 0.41 uM; for inhibition at 1.23 µM: MDA-MB-436, MDA-MB-436, Conc. 1.23 uM; for inhibition at 3.7 µM: MDA-MB-436, MDA-MB-436, Conc. 3.70 uM; for inhibition at 11.11 µM: MDA-MB-436, MDA-MB-436, Conc. 11.11 uM; for inhibition at 33.33 µM: MDA-MB-436, MDA-MB-436, Conc. 33.33 uM; for inhibition at 100 µM: MDA-MB-436, MDA-MB-436, Conc. 100.00 uM
How it was run: as §2

[3] = Homo sapiens, replicate 1, read-out: Inh % 1
[4] = Homo sapiens, replicate 2, read-out: Inh % 2

SMILES: COc1ccc(C(=O)CCN2CCC(c3nc4c(C(N)=O)cccc4[nH]3)C2)cc1 (centres unmarked) [Compound 5ci, 2-(1-(3-(4-Methoxyphenyl)-3-oxopropyl)pyrrolidin-3-yl)-1H-benzo[d]imidazole-4-carboxamide]
- inhibition at 0.01 µM (PARP-2; supplement sheet, read-out: 10 nM inhibition% PAPR-2): 62.5%
- inhibition at 0.01 µM (PARP-2; read-out: PARP-2 Inhibition % (10 nM)): 62.5%
- pIC50 (PARP-2; read-out: PARP-2 IC50): 8.35
- pIC50 (PARP-2; supplement sheet, read-out: IC50 PAPR-2): 8.34
- inhibition at 0.01 µM (PARP-1; supplement sheet, read-out: 10 nM inhibition% PAPR-1): 59.2%
- inhibition at 0.01 µM (PARP-1; read-out: PARP-1 Inhibition % (10 nM)): 59.2%
- pIC50 (PARP-1; read-out: PARP-1 IC50): 8.23
- pIC50 (PARP-1; supplement sheet, read-out: IC50 PAPR-1): 8.23
- LogIC50 ([1]; CAPAN-1, curve-fit output, Log (uM)): 1.682
- pIC50 ([1]; Homo sapiens, CAPAN-1, 72 h, CellTiter-Glo, read-out: CAPAN-1 IC50): 4.32
- inhibition at 0.00508 µM [1, 3]: 3.5%
- inhibition at 0.00508 µM [1, 4]: -8.1%
- inhibition at 0.0152 µM [1, 3]: 3.7%
- inhibition at 0.0152 µM [1, 4]: 5.2%
- inhibition at 0.0457 µM [1, 3]: 2.3%
- inhibition at 0.0457 µM [1, 4]: -3.2%
- inhibition at […] [1, 3]: 7.9%
- inhibition at […] [1, 4]: 5.4%
- inhibition at 0.41 µM [1, 3]: 9.3%
- inhibition at 0.41 µM [1, 4]: -5.7%
- inhibition at 1.23 µM [1, 3]: -11.8%
- inhibition at 1.23 µM [1, 4]: -10.7%
- inhibition at 3.7 µM [1, 3]: 0.241%
- inhibition at 3.7 µM [1, 4]: -0.2%
- inhibition at 11.11 µM [1, 3]: 6%
- inhibition at 11.11 µM [1, 4]: -3.5%
- inhibition at 33.33 µM [1, 3]: 27.1%
- inhibition at 33.33 µM [1, 4]: 18.7%
- inhibition at 100 µM [1, 3]: 85.7%
- inhibition at 100 µM [1, 4]: 75.3%
- pIC50 ([1]; Homo sapiens, CAPAN-1, 72 h, supplement Summary sheet, read-out: IC50): 4.32
- IC50 ([1]; Homo sapiens, CAPAN-1, curve-fit output, concentrations in uM, read-out: IC50): 48.1 µM
- inhibition at 0.00508 µM [2, 3]: -3.7%
- inhibition at 0.00508 µM [2, 4]: -7.9%
- inhibition at 0.0152 µM [2, 3]: -0.252%
- inhibition at 0.0152 µM [2, 4]: -7.1%
- inhibition at 0.0457 µM [2, 3]: -8.5%
- inhibition at 0.0457 µM [2, 4]: -13.5%
- inhibition at 0.41 µM [2, 3]: -19.2%
- inhibition at 0.41 µM [2, 4]: -15.9%
- inhibition at 1.23 µM [2, 3]: -9.5%
- inhibition at 1.23 µM [2, 4]: -17.4%
- inhibition at 3.7 µM [2, 3]: -10.7%
- inhibition at 3.7 µM [2, 4]: -17.4%
- inhibition at 11.11 µM [2, 3]: -13.6%
- inhibition at 11.11 µM [2, 4]: -15.6%
- inhibition at 33.33 µM [2, 3]: 7.8%
- inhibition at 33.33 µM [2, 4]: 1.7%
- inhibition at 100 µM [2, 3]: 89.3%
- inhibition at 100 µM [2, 4]: 86.7%
- pIC50 ([2]; Homo sapiens, MDA-MB-436, 72 h, CellTiter-Glo, read-out: MDA-MB-436 IC50): 4.41
- pIC50 ([2]; Homo sapiens, MDA-MB-436, 72 h, supplement Summary sheet, read-out: IC50): 4.41
- IC50 ([2]; Homo sapiens, MDA-MB-436, curve fit list, no unit in the cell, concentration in uM, read-out: IC50): 38.6 µM
- LogIC50 ([2]; MDA-MB-436, curve fit on Log (uM) concentrations): ~ 1.587
- Bottom ([2]; MDA-MB-436, curve fit parameter (Inh %)): -11.35
- Top ([2]; MDA-MB-436, curve fit parameter (Inh %), '= 100.0' is a constrained value): 88
